Reference: patent publication US11254668B2, “Pyrazolo[1,5-A]pyrazin-4-yl and related derivatives” (Pfizer Inc., priority 2017, dated 2022)

How the values were obtained:
Assay type in all cases: biochemical
Details in all cases: JAK Caliper enzyme assay
TYK2 = TYK2 (Homo sapiens (Human), UniProt P29597); experiment: JAK Caliper Enzyme Assay at 1 mM ATP, TYK2
Summary of the method: (§1)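 Mobility-shift microfluidic read-out: substrate and phosphopeptide peaks separated, % conversion = product/(product+substrate). Reaction used recombinant human kinase domain, synthetic peptide, 1 mM ATP, RT incubation to 20–30% turnover, quenched with EDTA. Percent effect versus DMSO and positive controls, plotted against concentration.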

JAK1 = JAK1 (Homo sapiens (Human), UniProt P23458); experiment: JAK Caliper Enzyme Assay at 1 mM ATP, JAK1
Summary of the method: (§2)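 Recombinant human kinase domains phosphorylated a fluorescent synthetic peptide at room temperature, with enzyme level and time tuned to 20% to 30% conversion; EDTA stop buffer ended reactions. Mobility-shift separation gave percent product from peak heights, normalised to DMSO and positive controls, and IC50s came from concentration–effect curves.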

JAK2 = JAK2 (Homo sapiens (Human), UniProt O60674); experiment: JAK Caliper Enzyme Assay at 1 mM ATP, JAK2
Summary of the method: as §1

JAK3 = JAK3 (Homo sapiens (Human), UniProt P52333); experiment: JAK Caliper Enzyme Assay at 1 mM ATP, JAK3
Summary of the method: as §2

Chain of JAK1 (P23458 875-1153): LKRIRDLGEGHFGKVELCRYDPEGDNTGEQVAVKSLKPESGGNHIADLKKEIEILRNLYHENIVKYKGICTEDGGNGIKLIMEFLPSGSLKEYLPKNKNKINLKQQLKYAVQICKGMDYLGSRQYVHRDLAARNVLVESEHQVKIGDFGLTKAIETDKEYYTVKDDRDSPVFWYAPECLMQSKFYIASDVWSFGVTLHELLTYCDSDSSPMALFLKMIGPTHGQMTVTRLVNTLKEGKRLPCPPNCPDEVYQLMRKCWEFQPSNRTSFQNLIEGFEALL
Chain of JAK3 (P52333 822-1111): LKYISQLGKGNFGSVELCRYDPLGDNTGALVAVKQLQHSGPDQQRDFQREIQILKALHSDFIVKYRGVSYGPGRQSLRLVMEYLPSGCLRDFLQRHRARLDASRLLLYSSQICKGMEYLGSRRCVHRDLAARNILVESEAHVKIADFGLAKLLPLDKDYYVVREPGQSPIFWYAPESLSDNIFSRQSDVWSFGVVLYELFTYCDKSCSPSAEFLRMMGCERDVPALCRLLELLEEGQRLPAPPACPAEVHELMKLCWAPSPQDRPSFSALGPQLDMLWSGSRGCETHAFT
Chain of TYK2 (P29597 897-1176): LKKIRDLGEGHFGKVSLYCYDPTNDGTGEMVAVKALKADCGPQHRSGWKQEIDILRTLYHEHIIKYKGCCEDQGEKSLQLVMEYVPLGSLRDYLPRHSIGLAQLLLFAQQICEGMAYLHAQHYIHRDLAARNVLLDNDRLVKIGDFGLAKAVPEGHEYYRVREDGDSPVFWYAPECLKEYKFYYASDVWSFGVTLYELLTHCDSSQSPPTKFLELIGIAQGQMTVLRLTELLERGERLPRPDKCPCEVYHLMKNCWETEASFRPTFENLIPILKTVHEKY
Chain of JAK2 (O60674 849-1124): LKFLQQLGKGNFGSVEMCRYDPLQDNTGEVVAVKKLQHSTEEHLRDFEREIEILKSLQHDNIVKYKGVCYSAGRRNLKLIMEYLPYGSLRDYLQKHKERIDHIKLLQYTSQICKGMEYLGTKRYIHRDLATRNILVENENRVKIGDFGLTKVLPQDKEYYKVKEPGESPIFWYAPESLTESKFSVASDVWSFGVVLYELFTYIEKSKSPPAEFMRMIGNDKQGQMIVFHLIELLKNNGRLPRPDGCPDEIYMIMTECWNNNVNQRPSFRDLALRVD

| SMILES | IC50 (TYK2) [µM] | IC50 (JAK1) [µM] | IC50 (JAK2) [µM] | IC50 (JAK3) [µM] |
| --- | --- | --- | --- | --- |
| N#CC[C@]1(n2ncc(-c3cc(-c4cncnc4)cc4ncccc34)n2)C[C@@H](C#N)C1 [Example 391, cis-3-(cyanomethyl)-3-{4-[7-(pyrimidin-5-yl)quinolin-5-yl]-2H-1,2,3-triazol-2-yl}cyclobutanecarbonitrile] | 2.84 | > 10 | 9.84 | > 10 |
| N#CC[C@]1(n2ncc(-c3cc(-c4cnccn4)cc4ncccc34)n2)C[C@@H](C#N)C1 [Example 392, cis-3-(cyanomethyl)-3-{4-[7-(pyrazin-2-yl)quinolin-5-yl]-2H-1,2,3-triazol-2-yl}cyclobutanecarbonitrile] | 0.66 | 7.11 | 3.05 | > 10 |
| CS(=O)(=O)N1CC(CC#N)(n2ncc(-c3cc(-c4cnc(N)nc4)cc4ncccc34)n2)C1 [Example 393, [3-{4-[7-(2-aminopyrimidin-5-yl)quinolin-5-yl]-2H-1,2,3-triazol-2-yl}-1-(methylsulfonyl)azetidin-3-yl]acetonitrile] | 3.47 | > 10 | > 10 | > 10 |
| N#CC[C@]1(n2ncc(-c3cc(-c4cc(N)ncn4)cc4ncccc34)n2)C[C@@H](C#N)C1 [Example 395, cis-3-{4-[7-(6-aminopyrimidin-4-yl)quinolin-5-yl]-2H-1,2,3-triazol-2-yl}-3-(cyanomethyl)cyclobutanecarbonitrile] | 0.078 | 6.35 | 0.774 | > 10 |
| N#CC[C@]1(n2ncc(-c3cc(-c4cncc(N)n4)cc4ncccc34)n2)C[C@@H](C#N)C1 [Example 396, cis-3-{4-[7-(6-aminopyrazin-2-yl)quinolin-5-yl]-2H-1,2,3-triazol-2-yl}-3-(cyanomethyl)cyclobutanecarbonitrile] | 0.506 | 3.33 | 1.48 | > 10 |
| N#CC[C@]1(n2ncc(-c3cc(-c4cnc(N)cn4)cc4ncccc34)n2)C[C@@H](C#N)C1 [Example 398, cis-3-{4-[7-(5-aminopyrazin-2-yl)quinolin-5-yl]-2H-1,2,3-triazol-2-yl}-3-(cyanomethyl)cyclobutanecarbonitrile] | 0.204 | 1.9 | 1.04 | > 10 |
| N#CC[C@]1(n2ncc(-c3cc(-c4cnc(N)cn4)cc4ncccc34)n2)C[C@H](C#N)C1 [Example 399, trans-3-{4-[7-(5-aminopyrazin-2-yl)quinolin-5-yl]-2H-1,2,3-triazol-2-yl}-3-(cyanomethyl)cyclobutanecarbonitrile] | 2.4 | > 10 | > 10 | > 10 |
| N#CC[C@]1(n2ncc(-c3cc(-c4ccc(N)nn4)cc4ncccc34)n2)C[C@@H](C#N)C1 [Example 400, cis-3-{4-[7-(6-aminopyridazin-3-yl)quinolin-5-yl]-2H-1,2,3-triazol-2-yl}-3-(cyanomethyl)cyclobutanecarbonitrile] | 0.016 | 0.748 | 0.067 | 9.13 |
| N#CC[C@]1(n2ncc(-c3cc(-c4ccc(N)nn4)cc4ncccc34)n2)C[C@H](C#N)C1 [Example 401, trans-3-{4-[7-(6-aminopyridazin-3-yl)quinolin-5-yl]-2H-1,2,3-triazol-2-yl}-3-(cyanomethyl)cyclobutanecarbonitrile] | 0.055 | 3.7 | 0.369 | > 10 |
| Cc1cncc(-c2cc(-c3cnn([C@]4(CC#N)C[C@H](C#N)C4)n3)c3cccnc3c2)n1 [Example 402, cis-3-(cyanomethyl)-3-{4-[7-(6-methylpyrazin-2-yl)quinolin-5-yl]-2H-1,2,3-triazol-2-yl}cyclobutanecarbonitrile] | 2.53 | > 10 | 6.29 | > 10 |
